{"source": "patent US20220175673A1", "about": "“SURGICAL DEVICE” (Saint Anthony Biomedical, LLC, priority 2017, published 2022)", "origin": "cited, not measured here", "tested_on": "Bacteroides, Propionibacterium, Clostridium deficile, Selenomonas", "details": "some strains"}
{"compound": "[H]/N=C(\\N/C(=N/[H])NCCCCCCNC(=N)NC(=N)Nc1ccc(Cl)cc1)Nc1ccc(Cl)cc1", "note": "[Chlorhexidine, chlorhexidine]", "values": [{"measurement": "activity", "result": "active against some strains"}]}
